Here are results for 20 compounds from US20050171358A1 (priority 2002, published 2005).

This assay deals with Pyricularia oryzae. It counts as in vivo. The following applies: 200 ppm spray on rice (Koshihikari, 3 leaf stage), inoculated next day; lesion numbers on third leaves after 7 days in green house, graded by Table 5.
Regarding `O=C(NCc1cc(-c2ccccc2)no1)Nc1cccc(Cl)c1` [II-49, 1-[(3-phenyl-5-isoxazolyl)methyl]-3-(3-chlorophenyl)urea], the “Evaluation (effect for rice blast)” value is on record as 4 (1˜5).
With `COc1ccc(C(=O)NCc2cc(COc3cccnc3)no2)cc1` [IV-91, N-{[3-(3-pyridyl)oxymethyl-5-isoxazolyl]methyl}-4-methoxybenzamide] the figure was 3 (6˜10); with `Cc1ccc(-c2cc(CNC(=O)Oc3ccccc3)on2)cc1` [I-25, phenyl{[3-(4-tolyl)-5-isoxazolyl)methyl]carbamate], 5 (0).
In the case of `COc1ccc(C(=O)NCc2cc(COc3ccccc3C#N)no2)cc1` [IV-51, N-{[3-(2-cyanophenyl)oxymethyl-5-isoxazolyl]methyl}-4-methoxybenzamide], the “Evaluation (effect for rice blast)” value is reported as 2 (11˜20).
With `O=C(Cc1ccccc1)NCc1cc(-c2ccccc2)no1` [I-48, N-[(3-phenyl-5-isoxazolyl)methyl]-2-phenylethanamide] the figure was 4 (1˜5); with `CC1C(Cl)(Cl)C1(C)C(=O)NCc1cc(-c2ccccc2)no1` (centres unmarked) [III-212], 2 (11˜20).
Under `O=C(NCc1cc(-c2ccccc2)no1)Nc1ccccn1` [II-99, 1-[(3-phenyl-5-isoxazolyl)methyl]-3-(2-pyridyl)urea] stands 3 (6˜10); under `O=C(NCc1cc(-c2ccccc2)no1)Nc1ccc(Cl)cc1` [II-50, 1-[(3-phenyl-5-isoxazolyl)methyl]-3-(4-chlorophenyl)urea], 5 (0).
`CC(=O)Nc1ccc(-c2cc(CNC(=O)c3ccc(C)cc3)on2)cc1` [III-57, N-{[3-(4-acetamidophenyl)-5-isoxazolyl]methyl}-4-methylbenzamide]: the “Evaluation (effect for rice blast)” value is 2 (11˜20).
With `CS(=O)(=O)c1ccc(C(=O)NCc2cc(Cc3ccccc3)no2)cc1` [IV-8, N-[(3-benzyl-5-isoxazolyl)methyl]-4-methanesulfonylbenzamide] the figure was 3 (6˜10); with `CC(NC(=O)C1(C)C(C)C1(Cl)Cl)c1cc(-c2ccccc2)no1` (centres unmarked) [III-213, N-[1-(3-phenyl-5-isoxazolyl)ethyl]-2,2-dichloro-1,3-dimethylcyclopropanecarboxamide], 3 (6˜10); with `CC(C)c1cc(CNC(=O)Nc2ccccc2)on1` [II-3, 1-[(3-isopropyl-5-isoxazolyl)methyl]-3-phenylurea], 3 (6˜10).
With `Cc1ccc(-c2cc(CNC(=O)Nc3ccccc3)on2)cc1` [II-2, 3-{[3-(4-tolyl)-5-isoxazolyl]methyl}-1-phenyl urea] the figure was 5 (0); with `COc1ccc(C(=O)NCc2cc(C(=O)c3ccccc3)no2)cc1` [IV-98, N-[(3-benzoyl-5-isoxazolyl)methyl]-4-methoxybenzamide], 2 (11˜20).
Under `CCc1ccc(C(=O)NCc2cc(Cc3ccccc3)no2)cc1` [IV-6, N-[(3-benzyl-5-isoxazolyl)methyl]-4-ethylbenzamide] stands 5 (0); under `COc1ccc(C(=O)NCc2cc(C(=O)Nc3ccc(Cl)cc3)no2)cc1` [IV-106, N-{[3-(4-chlorophenyl)aminocarbonyl-5-isoxazolyl]methyl}-4-methoxybenzamide], 2 (11˜20); under `O=C(NCc1cc(Cc2ccccc2)no1)OC1CCCCC1`, 4 (1˜5).
In the case of `O=C(NCc1cc(-c2ccccn2)no1)Oc1ccccc1` [I-31, phenyl{[3-(2-pyrizyl)-5-isoxazolyl]methyl}carbamate], the “Evaluation (effect for rice blast)” value is given as 4 (1˜5).
With `O=C(NCc1cc(-c2cccs2)no1)Oc1ccccc1` [I-32, phenyl{[3-(2-thienyl)-5-isoxazolyl)methyl]carbamate] the figure was 5 (0).
With `Cc1ccc(-c2cc(CNC(=O)N3CCCCC3)on2)cc1` [III-203] the figure was 2 (11˜20).
